From PubChem BioAssay (NCI) come the findings set out here.

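Tested at 5 concentrations; 48 h exposure; 96-well plates; endpoints linearly interpolated, else capped at highest concentration. Definition used: TGI = concentration required for complete inhibition of growth.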 Where only a bound is given, the exact number is not on record here.

Assay in all cases: NCI-60 cell line screen, 48 h
Experiment [1] deals with HCT-15 colon.
Experiment [2] has as its system SF-295 CNS.
Experiment [3] concerns HCT-116 colon.
In experiment [4] the test system is SN12C renal.
Experiment [5] concerns UO-31 renal.
Experiment [6] concerns LOX IMVI melanoma.
Experiment [7] deals with NCI-H226 lung.
Experiment [8] relates to UACC-257 melanoma.
The subject of experiment [9] is OVCAR-8 ovarian.
The subject of experiment [10] is OVCAR-4 ovarian.
Experiment [11] deals with M14 melanoma.
Experiment [12] concerns DU-145 prostate.

On to `Cc1ccc(S(=O)(=O)n2ccn3c(=O)cc(C)nc23)cc1`, for which the TGI in [1], in experiment [2], in experiment [3], in experiment [4], in [5] and in experiment [6] was greater than 10 µM throughout. Also, the TGI in experiment [7], in [8], in [9], in experiment [10], in [11] and in experiment [12] was greater than 10 µM each time.
On to `Cc1sc(N=Nc2c(O)[nH]c3ccccc23)nc1-c1ccccc1`, for which the TGI in experiment [1] is 27.9 µM; in experiment [2], 29.1 µM; in [3], 35.1 µM; in experiment [4], 34.9 µM; in [5] it was 29.9 µM; in experiment [6], 36 µM. In addition, the TGI in [7] is greater than 100 µM; in experiment [8] it was 47.8 µM; in [9], 40.2 µM; in [10] it was 42.3 µM; in [11], 65.2 µM; in experiment [12] it was 24.8 µM.
For `CCCNc1[nH]c(C(C)=O)c(N)c1C(=S)Nc1ccccc1`, the TGI in experiment [1] was greater than 100 µM; in experiment [2] it was greater than 100 µM; in [3] it was greater than 100 µM; in [4] it was greater than 100 µM; in experiment [5], greater than 100 µM; in experiment [6] it was 63.4 µM. Moreover, the TGI is 75 µM in experiment [7]; greater than 100 µM in [8]; greater than 100 µM in experiment [9]; 74.5 µM in [10]; 36.8 µM in experiment [11]; greater than 100 µM in [12].
On to `CC(C)C1OCC(CO)CO1` (stereo not drawn), for which the TGI in experiment [1], in [2], in experiment [3], in experiment [4], in experiment [5] and in experiment [6] was greater than 100 µM in each case. Moreover, the TGI in experiment [7], in experiment [8], in experiment [9], in [10], in [11] and in [12] was greater than 100 µM in each case.
On to `CC1C(c2ccccc2O)c2cc3c(cc2OC1N1CCCC1)OCO3` (stereo not drawn), for which the TGI is greater than 100 µM in experiment [1]; 74.9 µM in experiment [2]; 43.1 µM in experiment [3]; 35.8 µM in [4]; greater than 100 µM in experiment [5]; 44.3 µM in experiment [6]. For the same compound, the TGI was greater than 100 µM in experiment [7]; 92.5 µM in experiment [8]; greater than 100 µM in [9]; 36.8 µM in experiment [11]; greater than 100 µM in [12].
For the compound `CC(=O)CN=C(C)NNc1ccc([N+](=O)[O-])cc1[N+](=O)[O-]`, the TGI in experiment [1], in [2], in experiment [3], in experiment [4], in experiment [5] and in experiment [6] was greater than 100 µM in each case. In addition, the TGI in [7], in experiment [9], in experiment [10], in [11] and in experiment [12] was greater than 100 µM each time.
As to `Cc1ccc(C2SC(N)=Nc3c2c(C)nn3C(=O)c2ccncc2)cc1` (stereo not drawn), the TGI in experiment [1], in experiment [2], in [3], in [4], in [6] and in [7] was greater than 10 µM throughout. Further, the TGI in experiment [8], in [9], in [10], in experiment [11] and in [12] was greater than 10 µM in each case.
In the case of `Nc1ncnc2c1ncn2CC(OCP(=O)(O)O)Oc1ccccc1` (stereo not drawn), the TGI in experiment [1], in experiment [2], in experiment [3], in [4], in [5] and in experiment [6] was greater than 100 µM each time. For the same compound, the TGI in experiment [7], in [8], in experiment [10], in experiment [11] and in [12] was greater than 100 µM in each case.
As to `COc1cccc(/C=N/n2c(-c3ccccc3)n[nH]c2=O)c1`, the TGI was greater than 100 µM in experiment [1]; 54.4 µM in experiment [2]; greater than 100 µM in [3]; greater than 100 µM in experiment [4]; greater than 100 µM in [5]; greater than 100 µM in [7]. In addition, the TGI in experiment [8] is greater than 100 µM; in experiment [9], 96.9 µM; in [10], greater than 100 µM; in experiment [11], greater than 100 µM; in [12], greater than 100 µM.
Consider `CC(O[Si](C)(C)C(C)(C)C)[C@H](NC(=O)OCC(Cl)(Cl)Cl)C(=O)O` (stereo partly drawn), for which the TGI in experiment [1], in experiment [2], in [3], in experiment [4], in experiment [5] and in [7] was greater than 100 µM each time. Also, the TGI in [8], in experiment [9], in [10] and in experiment [12] was greater than 100 µM throughout.
`C=CCSc1nn(CC=C)cc2ncnc1-2`: the TGI in experiment [1], in [2], in [3], in experiment [4], in [5] and in experiment [7] was greater than 100 µM throughout. Moreover, the TGI in experiment [8], in experiment [9], in experiment [11] and in [12] was greater than 100 µM throughout.
`COC(CNC(=O)C(C)NC(=O)C(C)NC(=O)c1ccccc1)OC` (stereo not drawn): the TGI in [1], in experiment [2], in [3], in experiment [4], in [7] and in experiment [8] was greater than 100 µM in each case. The TGI in [9], in experiment [10], in experiment [11] and in experiment [12] was greater than 100 µM throughout.
